One experiment addresses T1, TYK2 (Homo sapiens, UniProt P29597). Nature of the experiment: TYK2 degradation MSD assay in human PBMC cells. In kind it is cell-based. Particulars: 4 to 24 hours incubation, read-out: TYK2 MSD DC50 rating in human PBMC. On the set-up: endogenous in cells; host or cells: human PBMC. As to the method: (§1) Example 3. TYK2 Degradation MSD Assay in EBV-B, OCI-LY10, and Human PBMC Cells
(§2) Degradation of TYK2 in cells was quantitatively measured using Meso Scale Discovery (MSD) technology. EBV-B, OCI-LY10 or human PBMC cells were seeded in 96-well plates with a density of 0.4 million cells per well in 100 μl fresh media. Compounds were then added to the assay plates with a final top concentration of 1 to 10 μM in a 1:3 dilution series with total of 9 doses. The assay plates were then incubated for 4 to 24 hours at 37° C. under 5% CO2. The assay plates were then centrifuged for 5 minutes, and the cell pellets were treated with 100 μl/well RIPA lysis buffer (Boston Bioproducts, BP-115D) with protease and phosphatase inhibitors (Roche, 05892791001 and 04906837001). To prepare MSD assay plates (MSD, L15XA), the plates were coated with the capture antibody (Santa Cruz Biotechnology, SC-5271) in PBS, at 40 μl/well. The plates were then incubated overnight at 4° C., washed 3 times with 150 μl/well TBST buffer (Cell Signaling Technology, 9997S) and blocked with 150 μl/well blocking buffer (MSD, R93BA-4). Cell lysates were then added to MSD assay plates and the plates were incubated at room temperature for 1 hour. The plates were then washed 3 times with 150 μl/well TBST buffer and 25 μl/well primary detection antibody (Cell Signaling Technology, #9312). The assay plates were then incubated at room temperature for 1 hour, washed 3 times with 150 μl/well TBST buffer, and 25 μl/well secondary detection antibody, SULFO-TAG anti-rabbit antibody (MSD, R32AB-1) were added. The assay plates were then incubated at room temperature for 1 hour, washed 3 times with 150 μl/well TBST buffer, and 150 μl/well MSD reading buffer (MSD, R92TC-2) were added. The plates were then analyzed by an MSD reader. The data was analyzed by GraphPad Prism and the dose dependent TYK2 degradation was fit using the four-parameter inhibitor vs. response nonlinear regression. The DC50 data were measured and categorized into different levels in Table H. The compound with DC50 less than or equal to 1 nM is marked as A, with DC50 more than 1 nM and less than or equal to 10 nM is marked as B, with DC50 more than 10 nM and less than or equal to 100 nM is marked as C, and with DC50 more than 100 nM or not available is marked as D.
T1 sequence (P29597 whole entry): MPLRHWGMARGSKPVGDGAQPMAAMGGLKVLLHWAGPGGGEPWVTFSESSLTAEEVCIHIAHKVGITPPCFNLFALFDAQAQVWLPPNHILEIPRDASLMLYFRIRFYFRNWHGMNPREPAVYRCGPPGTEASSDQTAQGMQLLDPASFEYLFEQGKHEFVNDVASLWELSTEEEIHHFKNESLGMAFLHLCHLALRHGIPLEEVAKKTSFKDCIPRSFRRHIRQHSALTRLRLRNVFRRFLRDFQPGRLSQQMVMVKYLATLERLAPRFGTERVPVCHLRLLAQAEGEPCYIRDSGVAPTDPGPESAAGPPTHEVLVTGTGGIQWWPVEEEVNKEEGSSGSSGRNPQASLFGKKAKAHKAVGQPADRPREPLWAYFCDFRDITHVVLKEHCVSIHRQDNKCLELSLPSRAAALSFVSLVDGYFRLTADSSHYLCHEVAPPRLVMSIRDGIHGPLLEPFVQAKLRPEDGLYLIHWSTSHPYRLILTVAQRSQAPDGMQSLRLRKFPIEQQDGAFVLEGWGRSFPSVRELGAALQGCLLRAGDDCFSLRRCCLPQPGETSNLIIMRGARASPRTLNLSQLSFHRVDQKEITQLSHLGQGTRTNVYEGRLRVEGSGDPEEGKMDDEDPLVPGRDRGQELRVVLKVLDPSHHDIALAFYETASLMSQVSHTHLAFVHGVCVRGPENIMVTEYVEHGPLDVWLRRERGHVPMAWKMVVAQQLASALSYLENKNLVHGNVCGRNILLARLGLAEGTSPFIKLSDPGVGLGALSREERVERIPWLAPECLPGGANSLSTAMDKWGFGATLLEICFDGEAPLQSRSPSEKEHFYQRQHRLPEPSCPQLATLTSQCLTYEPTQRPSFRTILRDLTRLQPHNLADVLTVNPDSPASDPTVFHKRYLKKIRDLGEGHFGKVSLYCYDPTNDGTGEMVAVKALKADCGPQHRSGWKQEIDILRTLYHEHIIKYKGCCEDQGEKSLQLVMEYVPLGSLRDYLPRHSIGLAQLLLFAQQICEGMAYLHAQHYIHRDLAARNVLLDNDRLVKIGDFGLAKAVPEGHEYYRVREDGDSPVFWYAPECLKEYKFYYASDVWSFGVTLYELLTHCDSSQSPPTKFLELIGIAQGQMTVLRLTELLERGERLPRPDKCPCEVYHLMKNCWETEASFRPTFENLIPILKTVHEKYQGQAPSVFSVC
What is called DC50 is the midpoint of the concentration-degradation curve. On to `CNC(=O)c1cnc(Nc2ccc(CN3CCC(CN(C)c4ccc5c(c4)n(C)c(=O)n5C4CCC(=O)NC4=O)CC3)cn2)cc1Nc1cccc(-c2ncc(F)cn2)c1OC` (stereo not drawn) [Example K147], for which the DC50 was in the range of 0.001 to 0.01 µM.

With `CNC(=O)c1cnc(Nc2ccc(CN(C)CCCOC3CC(c4ccc5c(c4)n(C)c(=O)n5C4CCC(=O)NC4=O)C3)cn2)cc1Nc1cccc(-c2ncc(F)cn2)c1OC` (stereo not drawn) [Example K148], the DC50 was below 0.001 µM.

Take `CNC(=O)c1cnc(Nc2ccc(CN3CC4(CCN(c5ccc6c(c5)n(C)c(=O)n6C5CCC(=O)NC5=O)CC4)C3)cn2)cc1Nc1cccc(-c2ncc(F)cn2)c1OC` (stereo not drawn) [Example K149]: the DC50 is above 0.1 µM.

`CNC(=O)c1cnc(Nc2ccc(CN3CC4(CCN(c5cccc6c5n(C)c(=O)n6C5CCC(=O)NC5=O)CC4)C3)cn2)cc1Nc1cccc(-c2ncc(F)cn2)c1OC` (stereo not drawn) [Example K150]: the DC50 is below 0.001 µM.

Regarding `CNC(=O)c1cnc(Nc2ccc(CN3CCC(OCC#Cc4cccc5c4n(C)c(=O)n5C4CCC(=O)NC4=O)CC3)cn2)cc1Nc1cccc(-c2ncc(F)cn2)c1OC` (stereo not drawn) [Example K151], the DC50 is above 0.1 µM.

Turning to `CCNC(=O)c1cnc(Nc2ccc(C(=O)N(C)C3CCN(c4ccc5c(c4)n(C)c(=O)n5C4CCC(=O)NC4=O)CC3)cn2)cc1Nc1cccc(-c2ncc(F)cn2)c1OC` (stereo not drawn) [Example K152], the DC50 is above 0.1 µM.

On to `CNC(=O)c1cnc(Nc2ccc(CN(C)C3CN(c4ccc5c(c4)n(C)c(=O)n5C4CCC(=O)NC4=O)C3)cn2)cc1Nc1cccc(-c2ncc(F)cn2)c1OC` (stereo not drawn) [Example K153], for which the DC50 was below 0.001 µM.

Turning to `CNC(=O)c1cnc(Nc2ccc(CN(C)C3CN(c4cccc5c4n(C)c(=O)n5C4CCC(=O)NC4=O)C3)cn2)cc1Nc1cccc(-c2ncc(F)cn2)c1OC` (stereo not drawn) [Example K154], the DC50 was below 0.001 µM.

Regarding `CNC(=O)c1cnc(Nc2ccc(CN(C)C3CCN(c4ccc5c(c4)n(C)c(=O)n5C4CCC(=O)NC4=O)CC3)cn2)cc1Nc1cccc(-c2ncc(F)cn2)c1OC` (stereo not drawn) [Example K155], the DC50 was below 0.001 µM.

On to `CNC(=O)c1cnc(Nc2ccc(CN3CCCC(c4cccc5c4n(C)c(=O)n5C4CCC(=O)NC4=O)C3)cn2)cc1Nc1cccc(-c2ncc(F)cn2)c1OC` (stereo not drawn) [Example K156], for which the DC50 is above 0.1 µM.

Turning to `CNC(=O)c1cnc(Nc2ccc(CN(C)CCCOC3CCN(c4ccc5c(c4)n(C)c(=O)n5C4CCC(=O)NC4=O)CC3)cn2)cc1Nc1cccc(-c2ncc(F)cn2)c1OC` (stereo not drawn) [Example K157], the DC50 was above 0.1 µM.

Take `CNC(=O)c1cnc(Nc2ccc(CN(C)CCCOC3CC(c4cccc5c4n(C)c(=O)n5C4CCC(=O)NC4=O)C3)cn2)cc1Nc1cccc(-c2ncc(F)cn2)c1OC` (stereo not drawn) [Example K158]: the DC50 was above 0.1 µM.

As to `CNC(=O)c1cnc(Nc2ccc(CN3CCC(OC4CC(c5ccc6c(c5)n(C)c(=O)n6C5CCC(=O)NC5=O)C4)CC3)cn2)cc1Nc1cccc(-c2ncc(F)cn2)c1OC` (stereo not drawn) [Example K159], the DC50 was above 0.1 µM.

In another experiment the target is T1, TYK2. Nature of the experiment: TYK2 degradation MSD assay in EBV-B cells. Format: cell-based. On the set-up: endogenous in cells; host or cells: EBV-B cells. The conditions noted are these: 4 to 24 hours incubation, read-out: TYK2 MSD DC50 rating in EBV-B. As to the method:
as §1, §2
In the case of `CNC(=O)c1cnc(Nc2ccc(CN3CCC(CN(C)c4ccc5c(c4)n(C)c(=O)n5C4CCC(=O)NC4=O)CC3)cn2)cc1Nc1cccc(-c2ncc(F)cn2)c1OC` (stereo not drawn) [Example K147], the DC50 was below 0.001 µM.

Take `CNC(=O)c1cnc(Nc2ccc(CN(C)CCCOC3CC(c4ccc5c(c4)n(C)c(=O)n5C4CCC(=O)NC4=O)C3)cn2)cc1Nc1cccc(-c2ncc(F)cn2)c1OC` (stereo not drawn) [Example K148]: the DC50 is below 0.001 µM.

Consider `CNC(=O)c1cnc(Nc2ccc(CN3CC4(CCN(c5ccc6c(c5)n(C)c(=O)n6C5CCC(=O)NC5=O)CC4)C3)cn2)cc1Nc1cccc(-c2ncc(F)cn2)c1OC` (stereo not drawn) [Example K149], for which the DC50 is below 0.001 µM.

As to `CNC(=O)c1cnc(Nc2ccc(CN3CC4(CCN(c5cccc6c5n(C)c(=O)n6C5CCC(=O)NC5=O)CC4)C3)cn2)cc1Nc1cccc(-c2ncc(F)cn2)c1OC` (stereo not drawn) [Example K150], the DC50 is below 0.001 µM.

Take `CNC(=O)c1cnc(Nc2ccc(CN3CCC(OCC#Cc4cccc5c4n(C)c(=O)n5C4CCC(=O)NC4=O)CC3)cn2)cc1Nc1cccc(-c2ncc(F)cn2)c1OC` (stereo not drawn) [Example K151]: the 50% degradation concentration (DC50) is below 0.001 µM.

In the case of `CCNC(=O)c1cnc(Nc2ccc(C(=O)N(C)C3CCN(c4ccc5c(c4)n(C)c(=O)n5C4CCC(=O)NC4=O)CC3)cn2)cc1Nc1cccc(-c2ncc(F)cn2)c1OC` (stereo not drawn) [Example K152], the DC50 was in the range of 0.001 to 0.01 µM.

Consider `CNC(=O)c1cnc(Nc2ccc(CN(C)C3CN(c4ccc5c(c4)n(C)c(=O)n5C4CCC(=O)NC4=O)C3)cn2)cc1Nc1cccc(-c2ncc(F)cn2)c1OC` (stereo not drawn) [Example K153], for which the DC50 was above 0.1 µM.

With `CNC(=O)c1cnc(Nc2ccc(CN(C)C3CN(c4cccc5c4n(C)c(=O)n5C4CCC(=O)NC4=O)C3)cn2)cc1Nc1cccc(-c2ncc(F)cn2)c1OC` (stereo not drawn) [Example K154], the DC50 was above 0.1 µM.

Take `CNC(=O)c1cnc(Nc2ccc(CN(C)C3CCN(c4ccc5c(c4)n(C)c(=O)n5C4CCC(=O)NC4=O)CC3)cn2)cc1Nc1cccc(-c2ncc(F)cn2)c1OC` (stereo not drawn) [Example K155]: the DC50 was below 0.001 µM.

For `CNC(=O)c1cnc(Nc2ccc(CN3CCCC(c4cccc5c4n(C)c(=O)n5C4CCC(=O)NC4=O)C3)cn2)cc1Nc1cccc(-c2ncc(F)cn2)c1OC` (stereo not drawn) [Example K156], the DC50 was above 0.1 µM.

`CNC(=O)c1cnc(Nc2ccc(CN(C)CCCOC3CCN(c4ccc5c(c4)n(C)c(=O)n5C4CCC(=O)NC4=O)CC3)cn2)cc1Nc1cccc(-c2ncc(F)cn2)c1OC` (stereo not drawn) [Example K157]: the DC50 is below 0.001 µM.

Consider `CNC(=O)c1cnc(Nc2ccc(CN(C)CCCOC3CC(c4cccc5c4n(C)c(=O)n5C4CCC(=O)NC4=O)C3)cn2)cc1Nc1cccc(-c2ncc(F)cn2)c1OC` (stereo not drawn) [Example K158], for which the DC50 was below 0.001 µM.

On to `CNC(=O)c1cnc(Nc2ccc(CN3CCC(OC4CC(c5ccc6c(c5)n(C)c(=O)n6C5CCC(=O)NC5=O)C4)CC3)cn2)cc1Nc1cccc(-c2ncc(F)cn2)c1OC` (stereo not drawn) [Example K159], for which the DC50 is below 0.001 µM.

The target in a further experiment is T1, TYK2. Nature of the experiment: TYK2 degradation MSD assay in OCI-LY10 cells. In kind it is cell-based. On the set-up: endogenous in cells; host or cells: EBV-B cells. The conditions noted are these: 4 to 24 hours incubation, read-out: TYK2 MSD DC50 rating in OCI-LY10. As to the method: as §1, §2
Turning to `CNC(=O)c1cnc(Nc2ccc(CN3CCC(CN(C)c4ccc5c(c4)n(C)c(=O)n5C4CCC(=O)NC4=O)CC3)cn2)cc1Nc1cccc(-c2ncc(F)cn2)c1OC` (stereo not drawn) [Example K147], the DC50 was above 0.1 µM.

In the case of `CNC(=O)c1cnc(Nc2ccc(CN(C)CCCOC3CC(c4ccc5c(c4)n(C)c(=O)n5C4CCC(=O)NC4=O)C3)cn2)cc1Nc1cccc(-c2ncc(F)cn2)c1OC` (stereo not drawn) [Example K148], the DC50 is above 0.1 µM.

Take `CNC(=O)c1cnc(Nc2ccc(CN3CC4(CCN(c5ccc6c(c5)n(C)c(=O)n6C5CCC(=O)NC5=O)CC4)C3)cn2)cc1Nc1cccc(-c2ncc(F)cn2)c1OC` (stereo not drawn) [Example K149]: the DC50 was above 0.1 µM.

As to `CNC(=O)c1cnc(Nc2ccc(CN3CC4(CCN(c5cccc6c5n(C)c(=O)n6C5CCC(=O)NC5=O)CC4)C3)cn2)cc1Nc1cccc(-c2ncc(F)cn2)c1OC` (stereo not drawn) [Example K150], the DC50 is above 0.1 µM.

Turning to `CNC(=O)c1cnc(Nc2ccc(CN3CCC(OCC#Cc4cccc5c4n(C)c(=O)n5C4CCC(=O)NC4=O)CC3)cn2)cc1Nc1cccc(-c2ncc(F)cn2)c1OC` (stereo not drawn) [Example K151], the DC50 is above 0.1 µM.

Regarding `CCNC(=O)c1cnc(Nc2ccc(C(=O)N(C)C3CCN(c4ccc5c(c4)n(C)c(=O)n5C4CCC(=O)NC4=O)CC3)cn2)cc1Nc1cccc(-c2ncc(F)cn2)c1OC` (stereo not drawn) [Example K152], the DC50 was above 0.1 µM.

On to `CNC(=O)c1cnc(Nc2ccc(CN(C)C3CN(c4ccc5c(c4)n(C)c(=O)n5C4CCC(=O)NC4=O)C3)cn2)cc1Nc1cccc(-c2ncc(F)cn2)c1OC` (stereo not drawn) [Example K153], for which the DC50 is below 0.001 µM.

For `CNC(=O)c1cnc(Nc2ccc(CN(C)C3CN(c4cccc5c4n(C)c(=O)n5C4CCC(=O)NC4=O)C3)cn2)cc1Nc1cccc(-c2ncc(F)cn2)c1OC` (stereo not drawn) [Example K154], the DC50 was below 0.001 µM.

`CNC(=O)c1cnc(Nc2ccc(CN(C)C3CCN(c4ccc5c(c4)n(C)c(=O)n5C4CCC(=O)NC4=O)CC3)cn2)cc1Nc1cccc(-c2ncc(F)cn2)c1OC` (stereo not drawn) [Example K155]: the DC50 was above 0.1 µM.

Regarding `CNC(=O)c1cnc(Nc2ccc(CN3CCCC(c4cccc5c4n(C)c(=O)n5C4CCC(=O)NC4=O)C3)cn2)cc1Nc1cccc(-c2ncc(F)cn2)c1OC` (stereo not drawn) [Example K156], the DC50 is above 0.1 µM.

On to `CNC(=O)c1cnc(Nc2ccc(CN(C)CCCOC3CCN(c4ccc5c(c4)n(C)c(=O)n5C4CCC(=O)NC4=O)CC3)cn2)cc1Nc1cccc(-c2ncc(F)cn2)c1OC` (stereo not drawn) [Example K157], for which the DC50 is above 0.1 µM.

`CNC(=O)c1cnc(Nc2ccc(CN(C)CCCOC3CC(c4cccc5c4n(C)c(=O)n5C4CCC(=O)NC4=O)C3)cn2)cc1Nc1cccc(-c2ncc(F)cn2)c1OC` (stereo not drawn) [Example K158]: the DC50 is above 0.1 µM.

`CNC(=O)c1cnc(Nc2ccc(CN3CCC(OC4CC(c5ccc6c(c5)n(C)c(=O)n6C5CCC(=O)NC5=O)C4)CC3)cn2)cc1Nc1cccc(-c2ncc(F)cn2)c1OC` (stereo not drawn) [Example K159]: the DC50 was above 0.1 µM.

The values above are taken from patent US20250051338A1, “TYK2 DEGRADERS AND USES THEREOF” (Kymera Therapeutics, Inc., priority 2021, published 2025).
